This is an account of results in patent publication US6881705B2, “Fungicidal composition and use of this composition for controlling plant diseases” (Bayer Cropscience S.A., priority 2001, dated 2005).

Structures are written as SMILES.

The test system of assay [1] is Gloeosporium spp. Put plainly: in vivo trial combating Gloeosporium spp. on apples (Golden variety, preventive sprinkling). As to the method: This example proposes to give an illustration of the efficacy of a composition according to the invention for combating Gloeosporium spp. on apples, this trial was carried out in vivo. The fungicidal compositions are used in solution at the doses detailed in Table 2. Apples of the Golden variety, untreated after harvest, are treated by sprinkling a fungicidal solution up to the run-off limit at the doses described in Table 2 of results (8 apples per product). 6 hours later, the fruit are inoculated by sprinkling an aqueous suspension at 150 000 spores/ml of Gloeosporium spp. obtained from a preculture on PDA medium. This inoculation by sprinkling is carried out up to the run-off limit. The fruit are then stored in the dark at 20° C., 100% relative humidity and the scores for the disease start 3 weeks later, for a period of 2 weeks. The number of fruit affected by rot are counted and, in comparison with the untreated control, a percentage efficacy is calculated using the following formula: […].

In assay [2] the test system is Geotrichum candidum. Put plainly: in vitro control of Geotrichum candidum on PDA medium (colony diameter in microtitre plate wells). To be noted: 60 ppm in PDA medium; for Radial growth of the fungus (mm): 22° C., untreated control 15 mm; for Efficacy (%): colony diameter versus untreated control. In kind it is cell-based. As for the experimental part: This example gives an illustration of the efficacy of a composition according to the invention for controlling Geotrichum candidum, this trial was carried out in vitro. The fungicidal compositions are used in solution at the doses detailed in Table 1. […] 1 day later, a microdrop of an aqueous suspension of Geotrichum candidum spores, supplemented with 400 ppm of Tween 20, is brought to the surface of each well of the microtitre plate. The cultures are then incubated at 22° C., 60% relative humidity, under subdued light until the control culture (without fungicide) has covered the entire surface of the well. The diameter of each colony is then measured and, in comparison with the untreated control, a percentage efficacy is calculated using the following formula: (diameter of the control−diameter of the trial)/diameter of the control×100.

Regarding `C=CCOC(Cn1ccnc1)c1ccc(Cl)cc1Cl` (stereo not drawn) [Imazalil, imazalil], in assay [1] (375 ppm, sprinkled on Golden apples 6 hours before inoculation, rot versus untreated control), the “Efficacy (%)” value is reported as −29.2%. Further, in assay [2], the “Radial growth of the fungus (mm)” value turned out to be 14 mm and the “Efficacy (%)” value came to 7%.
Turning to `Cc1cc(C)nc(Nc2ccccc2)n1` [Pyrimethanil, pyrimethanil], the “Efficacy (%)” value in assay [1] (75 ppm) came out at 14.9%. Further, in assay [2], the “Radial growth of the fungus (mm)” value amounted to 15 mm and the “Efficacy (%)” value came to 0%.
